Test results published in patent publication US12441720B2, “Modulators of the integrated stress response pathway” (EVOTEC INTERNATIONAL GMBH, priority 2020, dated 2025).

Legend:
[1] = system: ATF4; assay: HEK-ATF4 High Content Imaging assay (prevention of Tunicamycin induced ISR); format: cell-based; conditions: Homo sapiens, wild-type HEK293 cells, 6 hrs incubation, ATF4 signal ratio nucleus/cytoplasm, read-out: Activity (IC50, HEK-ATF4 readout)
Protocol: Example compounds were tested in the HEK-ATF4 High Content Imaging assay to assess their pharmacological potency to prevent Tunicamycin induced ISR. Wild-type HEK293 cells were plated in 384-well imaging assay plates at a density of 12,000 cells per well in growth medium (containing DMEM/F12, 10% FBS, 2 mM L-Glutamine, 100 U/mL Penicillin—100 μg/mL Streptomycin) and incubated at 37° C., 5% CO2. 24-hrs later, the medium was changed to 50 μl assay medium per well (DMEM/F12, 0.3% FBS, 2 mM L-Glutamine, 100 U/mL Penicillin—100 μg/mL Streptomycin). Example compounds were serially diluted in dimethyl sulfoxide (DMSO), spotted into intermediate plates and prediluted with assay medium containing 3.3 μM Tunicamycin to give an 11-fold excess of final assay concentration. In addition to the example compound testing area, the plates also contained multiples of control wells for assay normalization purposes, wells containing Tunicamycin but no example compounds (High control), as well as wells containing neither example compound nor Tunicamycin (Low control). The assay was started by transferring 5 μl from the intermediate plate into the assay plates, followed by incubation for 6 hrs at 37° C., 5% CO2. Subsequently, cells were fixed (4% PFA in PBS, 20 min at room temperature) and submitted to indirect ATF4 immunofluorescence staining (primary antibody rabbit anti ATF4, clone D4B8, Cell Signaling Technologies; secondary antibody Alexa Fluor 488 goat anti-rabbit IgG (H+L), Thermofisher Scientific). Nuclei were stained using Hoechst dye (Thermofisher Scientific), and plates were imaged on an Opera Phenix High Content imaging platform equipped with 405 nm and 488 nm excitation. Finally, images were analyzed using script based algorithms. The main readout HEK-ATF4 monitored the ATF4 signal ratio between nucleus and cytoplasm. Tunicamycin induced an increase in the overall ATF4 ratio signal, which was prevented by ISR modulating example compounds. In addition, HEK-CellCount readout was derived from counting the number of stained nuclei corresponding to healthy cells. This readout served as an internal toxicity control.

[2] = biological target: T1, human ERG potassium channel (hERG) (Homo sapiens, UniProt Q12809); assay: hERG tail current recording, Rapid ICE automated patch-clamp (QPatch HTX); format: cell-based; conditions: recombinant HEK293 cell line stably transfected with hERG cDNA; test concentrations 0.3, 3 and 30 μM; read-out: hERG Activity (IC50, tail current inhibition)
T1 construct: expressed in transfected cells; host or cells: HEK293, stably transfected, tetracycline-inducible
T1 sequence (Q12809 whole entry): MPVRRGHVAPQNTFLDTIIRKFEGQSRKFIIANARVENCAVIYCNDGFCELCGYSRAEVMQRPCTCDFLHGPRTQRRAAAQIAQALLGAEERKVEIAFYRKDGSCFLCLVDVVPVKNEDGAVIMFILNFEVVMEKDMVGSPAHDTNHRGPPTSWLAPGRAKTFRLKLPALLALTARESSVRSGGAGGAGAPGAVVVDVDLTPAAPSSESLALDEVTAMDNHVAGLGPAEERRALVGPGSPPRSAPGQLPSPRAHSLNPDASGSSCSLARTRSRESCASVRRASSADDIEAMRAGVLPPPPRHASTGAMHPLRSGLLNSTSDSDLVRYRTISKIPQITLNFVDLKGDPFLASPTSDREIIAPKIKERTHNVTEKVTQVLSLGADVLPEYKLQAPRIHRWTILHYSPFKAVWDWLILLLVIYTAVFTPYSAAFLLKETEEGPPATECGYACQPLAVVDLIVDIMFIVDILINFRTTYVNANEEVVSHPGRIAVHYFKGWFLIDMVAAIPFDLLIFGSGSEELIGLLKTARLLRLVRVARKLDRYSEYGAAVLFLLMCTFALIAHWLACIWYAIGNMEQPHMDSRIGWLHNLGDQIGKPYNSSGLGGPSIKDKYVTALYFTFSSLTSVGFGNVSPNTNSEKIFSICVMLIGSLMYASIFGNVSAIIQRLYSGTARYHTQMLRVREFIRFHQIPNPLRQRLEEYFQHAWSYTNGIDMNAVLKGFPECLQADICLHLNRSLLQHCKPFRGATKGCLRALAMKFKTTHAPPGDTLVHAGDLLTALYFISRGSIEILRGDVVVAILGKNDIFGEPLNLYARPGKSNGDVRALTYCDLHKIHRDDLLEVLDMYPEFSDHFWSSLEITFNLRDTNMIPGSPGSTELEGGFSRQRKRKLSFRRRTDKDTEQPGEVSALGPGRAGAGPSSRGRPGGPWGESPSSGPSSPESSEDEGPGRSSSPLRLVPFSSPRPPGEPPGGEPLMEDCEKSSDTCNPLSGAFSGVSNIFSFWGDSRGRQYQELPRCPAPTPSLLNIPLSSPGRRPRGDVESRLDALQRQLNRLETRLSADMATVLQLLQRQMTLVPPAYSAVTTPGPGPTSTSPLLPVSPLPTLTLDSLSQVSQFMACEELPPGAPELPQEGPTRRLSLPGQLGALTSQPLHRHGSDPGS
Protocol: The potency of the example compounds in inhibiting human ERG potassium channel (hERG) tail current was assessed in a recombinant HEK293 cell line stably transfected with hERG cDNA under an inducible promoter, using Rapid ICE (rapid ion channel electrophysiology) assay. Rapid ICE is an automated patch-clamp assay utilizing the QPatch HTX system (Sophion Bioscience A/S). Briefly, inducible HEK hERG cells were cultivated in minimum essential medium supplemented with 10% FBS, 1% non-essential amino acids, 1% sodium pyruvate, 2 mM 1-glutamine, 15 μg/mL blasticidin, and 100 μg/mL hygromycin. hERG channel expression induction was obtained by adding 10 μg/mL tetracycline for 24, 48, or 72 h before recordings.
On the day of the experiment, cells were detached with TrypLE and prepared to be loaded on the instrument. Cells were resuspended in 7 mL of Serum-Free Media containing 25 mM Hepes and soybean trypsin inhibitor and immediately placed in the cell storage tank of the machine. The composition of the extracellular buffer was (mM): NaCl 137, KCl 4, CaCl2 1.8, MgCl2 1.0, d-glucose 10, N-2-hydroxyethylpiperazine-N′-2-ethanesulfonic acid (HEPES) 10, pH 7.4 with 1 M NaOH. The composition of the intracellular solution was (mM): KCl 130, MgCl2 1.0, ethylene glycol-bis(β-aminoethyl ether)-N,N,N′,N′-tetraacetic acid (EGTA) 5, MgATP 5, HEPES 10, pH 7.2 with 1 M KOH. The voltage protocol included the following steps: step from −80 to −50 mV for 200 ms, +20 mV for 4.8 s, step to −50 mV for 5 s, then step to the holding potential of […]. Example compounds were dissolved in DMSO and diluted in extracellular buffer to achieve final test concentrations (0.3, 3, and 30 μM) in 0.3% DMSO. The voltage protocol was run and recorded continuously during the experiment. The vehicle, corresponding to 0.3% DMSO in extracellular buffer was then applied for 3 min, followed by the example compound in triplicate. The standard combined exposure time was 5 min. The average of tail current amplitude values recorded from four sequential voltage pulses was used to calculate for each cell the effect of the example compound by calculating the residual current (% control) compared with vehicle pretreatment. Data were reported as % inhibition for each concentration tested, and IC50 values were estimated using QPatch software. At least two cells were tested, and even more if results diverged.

Row | SMILES | IC50 [1] [nM] | IC50 [2] [nM]
1 | O=C(COc1ccc(Cl)c(F)c1)N[C@H]1CO[C@H](c2nnc([C@H]3C[C@@H](OC(F)(F)F)C3)o2)OC1 [Example 2, 2-(4-chloro-3-fluorophenoxy)-N-[trans-2-{5-[cis-3-(trifluoromethoxy)cyclobutyl]-1,3,4-oxadiazol-2-yl}-1,3-dioxan-5-yl]acetamide] | 1 to 500 | > 5000
2 | O=C(COc1ccc(Cl)c(F)c1)N[C@H]1CO[C@H](c2nnc(OCCCC(F)(F)F)o2)OC1 [Example 5, 2-(4-chloro-3-fluorophenoxy)-N-[trans-2-[5-(4,4,4-trifluorobutoxy)-1,3,4-oxadiazol-2-yl]-1,3-dioxan-5-yl]acetamide] | 1 to 500 | 1000 to 5000
3 | O=C(COc1ccc(Cl)c(F)c1)N[C@H]1CO[C@H](c2nnc(OCCOC(F)(F)F)o2)OC1 [Example 6, 2-(4-chloro-3-fluorophenoxy)-N-[trans-2-{5-[2-(trifluoromethoxy)ethoxy]-1,3,4-oxadiazol-2-yl}-1,3-dioxan-5-yl]acetamide] | 1 to 500 | > 5000
4 | O=C(COc1ccc(Cl)c(F)c1)N[C@H]1CO[C@H](c2nnc(N3CC(OC(F)(F)F)C3)o2)OC1 [Example 7, 2-(4-chloro-3-fluorophenoxy)-N-[trans-2-{5-[3-(trifluoromethoxy)azetidin-1-yl]-1,3,4-oxadiazol-2-yl}-1,3-dioxan-5-yl]acetamide] | 1 to 500 | > 5000
5 | O=C(COc1ccc(C(F)F)c(Cl)c1)N[C@H]1CO[C@H](c2nnc(N3CC(OC(F)(F)F)C3)o2)OC1 [Example 8, 2-[3-chloro-4-(difluoromethyl)phenoxy]-N-[trans-2-{5-[3-(trifluoromethoxy)azetidin-1-yl]-1,3,4-oxadiazol-2-yl}-1,3-dioxan-5-yl]acetamide] | 1 to 500 | > 5000
6 | O=C(COc1ccc(Cl)c(Cl)c1)N[C@H]1CO[C@H](c2nnc(OCCOC(F)(F)F)o2)OC1 [Example 9, 2-(3,4-dichlorophenoxy)-N-[trans-2-{5-[2-(trifluoromethoxy)ethoxy]-1,3,4-oxadiazol-2-yl}-1,3-dioxan-5-yl]acetamide] | 1 to 500 | > 5000
7 | O=C(COc1cnc(Cl)c(F)c1)N[C@H]1CO[C@H](c2nnc([C@H]3C[C@@H](OC(F)(F)F)C3)o2)OC1 [Example 10, 2-[(6-chloro-5-fluoro-3-pyridyl)oxy]-N-[trans-2-[5-[cis-3-(trifluoromethoxy)cyclobutyl]-1,3,4-oxadiazol-2-yl]-1,3-dioxan-5-yl]acetamide] | 2000 to 15000 | > 5000

Second part, led by results:

Row | IC50 [1] [nM] | SMILES | IC50 [2] [nM]
8 | 1 to 500 | O=C(COc1ccc(Cl)c(F)c1)N[C@H]1CO[C@H](c2nnc(-c3ccc(Cl)cc3)o2)OC1 [Example 1, 2-(4-chloro-3-fluorophenoxy)-N-[trans-2-[5-(4-chlorophenyl)-1,3,4-oxadiazol-2-yl]-1,3-dioxan-5-yl]acetamide] | 
9 | 2000 to 15000 | O=C(COc1ccc(Cl)c(F)c1)N[C@H]1CO[C@@H](c2cn(-c3ccc(Cl)cc3)nn2)OC1 [Example 3, 2-(4-chloro-3-fluorophenoxy)-N-[cis-2-[1-(4-chlorophenyl)-1H-1,2,3-triazol-4-yl]-1,3-dioxan-5-yl]acetamide] | 
10 | 500 to 2000 | O=C(COc1ccc(Cl)c(F)c1)N[C@H]1CO[C@H](c2cn(-c3ccc(Cl)cc3)nn2)OC1 [Example 4, 2-(4-chloro-3-fluorophenoxy)-N-[trans-2-[1-(4-chlorophenyl)-1H-1,2,3-triazol-4-yl]-1,3-dioxan-5-yl]acetamide] | 
